Data set [1] has as its target T1, human soluble ENPP1 (Homo sapiens, UniProt P22413).
T1 construct: 20 ng of human soluble ENPP1
T1 sequence (P22413 103-925 limits assumed): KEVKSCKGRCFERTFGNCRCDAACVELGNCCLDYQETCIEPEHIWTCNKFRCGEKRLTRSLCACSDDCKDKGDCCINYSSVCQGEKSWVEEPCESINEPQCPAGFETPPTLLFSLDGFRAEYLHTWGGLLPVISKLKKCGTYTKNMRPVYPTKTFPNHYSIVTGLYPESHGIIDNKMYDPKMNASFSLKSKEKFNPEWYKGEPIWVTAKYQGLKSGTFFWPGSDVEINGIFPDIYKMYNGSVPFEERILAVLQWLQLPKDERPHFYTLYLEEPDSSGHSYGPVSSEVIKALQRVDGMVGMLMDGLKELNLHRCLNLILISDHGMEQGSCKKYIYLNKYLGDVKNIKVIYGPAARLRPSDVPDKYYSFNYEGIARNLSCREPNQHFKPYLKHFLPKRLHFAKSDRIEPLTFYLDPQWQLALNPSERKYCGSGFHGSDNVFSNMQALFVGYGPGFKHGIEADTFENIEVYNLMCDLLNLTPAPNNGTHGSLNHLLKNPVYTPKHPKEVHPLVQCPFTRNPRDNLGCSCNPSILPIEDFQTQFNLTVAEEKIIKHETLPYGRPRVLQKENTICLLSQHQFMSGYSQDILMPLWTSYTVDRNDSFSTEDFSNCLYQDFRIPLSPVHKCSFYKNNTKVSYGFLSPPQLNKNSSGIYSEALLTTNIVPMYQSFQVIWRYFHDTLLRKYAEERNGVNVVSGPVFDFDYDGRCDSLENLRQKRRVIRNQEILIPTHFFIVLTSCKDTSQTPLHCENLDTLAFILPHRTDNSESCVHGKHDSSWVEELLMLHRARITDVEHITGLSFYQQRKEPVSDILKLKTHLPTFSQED
Put plainly: ENPP1 activity assay using p-Nitrophenyl-5′-AMP as a substrate. The data set is classed as biochemical. A digest of the protocol:
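Human soluble ENPP1 (35 ng) preincubated with inhibitor 30 min at RT, then p-nitrophenyl-5′-AMP added (3 mM solution, 2× final) and incubated 1 h at RT. p-Nitrophenolate release read at OD 405 nm; % inhibition vs no-inhibitor and blank controls, IC50 from four-parameter fit.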

The target of data set [2] is T1, human soluble ENPP1. Put plainly: ENPP1 activity assay using p-Nitrophenyl-5′-TMP as a substrate. It counts as biochemical. A digest of the protocol:
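Human soluble ENPP1 (20 ng) was preincubated with inhibitor for 30 min at room temperature. TMP-pNP was then added as a 2 mM […] solution and incubated 1 h at RT, with p-nitrophenol formation read by OD. IC50 came from four-parameter fits of % inhibition relative to no-inhibitor and blank controls.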

Data set [3] has as its target T2, ENPP-1, HEK293 cells (Homo sapiens, UniProt P22413).
T2 construct: ENPP-1 were mainly expressed on the surface of cell membrane; endogenous in cells; host or cells: HEK293
T2 sequence (P22413 1-925): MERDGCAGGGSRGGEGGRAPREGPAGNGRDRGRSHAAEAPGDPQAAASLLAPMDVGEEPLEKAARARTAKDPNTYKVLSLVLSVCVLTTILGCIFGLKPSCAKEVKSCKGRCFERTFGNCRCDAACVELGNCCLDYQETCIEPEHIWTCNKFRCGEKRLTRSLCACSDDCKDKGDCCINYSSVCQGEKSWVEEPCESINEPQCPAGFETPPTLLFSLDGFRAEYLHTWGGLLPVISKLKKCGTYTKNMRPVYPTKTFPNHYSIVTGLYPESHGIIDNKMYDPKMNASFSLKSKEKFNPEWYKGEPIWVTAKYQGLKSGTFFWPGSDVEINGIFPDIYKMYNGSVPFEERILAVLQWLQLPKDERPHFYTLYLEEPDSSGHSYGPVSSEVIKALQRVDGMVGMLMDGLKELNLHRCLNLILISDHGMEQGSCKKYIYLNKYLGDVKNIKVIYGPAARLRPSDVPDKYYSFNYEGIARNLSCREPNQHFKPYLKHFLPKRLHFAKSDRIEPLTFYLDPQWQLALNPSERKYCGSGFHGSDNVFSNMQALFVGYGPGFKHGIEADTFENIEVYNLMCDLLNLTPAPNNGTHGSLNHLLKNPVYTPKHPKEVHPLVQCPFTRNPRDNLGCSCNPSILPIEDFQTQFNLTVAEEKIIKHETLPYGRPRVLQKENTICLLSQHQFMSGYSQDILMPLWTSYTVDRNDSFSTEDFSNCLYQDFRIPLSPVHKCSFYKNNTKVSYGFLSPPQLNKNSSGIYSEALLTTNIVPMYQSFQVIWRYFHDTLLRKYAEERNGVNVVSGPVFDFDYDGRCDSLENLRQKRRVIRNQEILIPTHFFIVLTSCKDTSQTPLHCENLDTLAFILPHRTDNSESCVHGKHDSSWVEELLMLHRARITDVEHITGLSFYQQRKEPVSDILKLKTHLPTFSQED
Put plainly: Cellular enzymatic assay of ENPP-1 inhibitors using TMP-pNP as substrate, HEK 293 cells. The data set is classed as cell-based. As for the experimental part: (§1) ENPP-1 were mainly expressed on the surface of cell membrane where it hydrolytes 2′3′-cGAMP to generate 5′-GMP and 5′-AMP. ENPP-1 also has the ability to hydrolyzes artificial phosphoric acid ester TMP-pNP to nucleotide-5′-monophosphate and p-nitrophcnol there, which is a chromogenic product.
(§2) 8 point of different concentrations of each inhibitor were prepared with the final assay concentrations starting at 20 μM. 3× series dilution by DMEM medium without FBS was applied. Prior to adding inhibitors, 75000 cells per well were incubated at 37° C., 5% CO2 in DMEM for 24 hours. After removing the supernatant medium, 50 μL inhibitor solution was added into each well with cultured cells and incubate at 37° C., 5% CO2 for 60 minutes.
(§3) The IC50 values for percent inhibition versus compound concentration are determined by fitting the inhibition curves using a four-parameter variable slope model in GraphPad Prism® 8.

Data set [4] can be described thus: Liver microsome stability, mouse. The data set is classed as in vitro ADME. As for the experimental part: Liver microsome assay was used to evaluate the metabolic stability of I-VI. The test article at the concentration of […] was incubated with 0.5 mg/mL liver microsome in the presence of NADPH and UDPGA as the co-factors for 0, 15, 30, 45 and 60 minutes. The incubation was carried out at 37° C. with 5% CO2 and saturating humidity. Disappearance of the test article was monitored by LC/MS/MS. the disappearance half-life (t1/2), intrinsic clearance and hepatic extraction ratio were determined.
In general terms: Liver microsomes are a subcellular fraction often used to study metabolism.

Data set [5] has as its target T3, ENPP-1, MDA-MB-231 cells (Homo sapiens, UniProt P22413).
T3 sequence (P22413 1-925): T2 sequence (P22413 1-925)
As to the kind of experiment: cell-based. Conditions: for inhibition at 20 µM: MDA-MB-231, read-out: % Inhibition (at 20 μM).

Data set [6] concerns the target T4, ENPP-1, Saos-2 cells (Homo sapiens, UniProt P22413).
T4 construct: ENPP-1 were mainly expressed on the surface of cell membrane; endogenous in cells; host or cells: Saos-2
T4 sequence (P22413 1-925): T2 sequence (P22413 1-925)
Put plainly: Cellular enzymatic assay of ENPP-1 inhibitors using TMP-pNP as substrate, Saos-2 cells. It counts as cell-based. Conditions: for inhibition at 20 µM: SAOS-2, read-out: % Inhibition (@20 μM). As for the experimental part: as §1, §2, §3

The nature of data set [7]: Pharmacokinetics in mice. The data set is classed as in vivo. Conditions: mouse, plasma, male CD-1 mice, 1 mg/kg, iv; for Vd: read-out: Vdss. As to the method: A dosing solution of test sample was prepared at 1.0 mg/mL in 5% DMSO/40% PEG400/55% water and administered to male CD-1 mice (4-6 weeks old, 20-30 grams, 3 animals each group) via intravenous (IV) bolus at 1 mg/kg and by oral gavage (PO) at 5 mg/kg. Blood samples (˜0.03 mL each time point) were collected via the jugular vein into tubes containing sodium heparin as the anticoagulant at 0.033, 0.083, 0.25, 0.5, 1, 2, 4, 8 and 24 hours post dose for IV administration and 0.083, 0.25, 0.5, 1, 2, 4, 8 and 24 hours post dose for PO administration. The blood samples were then centrifuged for 5 minutes in a centrifuge refrigerated at 4° C. The resultant plasma samples were analyzed using LC/MS/MS to determine concentrations of test sample. Non-compartmental model with WinNonlin (Phoenix™, version 8.0) software was used to calculate pharmacokinetic (PK) parameters.

[8] abbreviates: HEK293, read-out: Inhibition (at 20 μM).
The mark [9] stands for this setting: HEK293, HEK 293 cells, at 20 μM, read-out: Inhibition (at 20 μM).

The results in this text go back to patent US11673889B2, “Substituted imidazo[4,5-c][1,8]naphthyridines as phosphodiesterase inhibitors” (Nanjing Zhengxiang Pharmaceuticals Co., Ltd., priority 2019, dated 2023).

Read-outs that look alike come from different tables or passages of the source.

As for `COc1cc2ncc3[nH]c(=O)n(Cc4ccc(S(N)(=O)=O)cc4)c3c2cc1OC` [Compound 1, 4-((7,8-dimethoxy-2-oxo-2,3-dihydro-1H-imidazo[4,5-c]quinolin-1-yl)methyl)benzenesulfonamide], the results for the IC50 in data set [1], in data set [2] and in data set [5] were 5.9 nM, 1.7 nM and 2900 nM, respectively. Also, the inhibition at 20 µM worked out at 19% in data set [3] (setting [8]), 50% in data set [5] and 32% in data set [6]. For the same compound, the “Hepatic extraction ratio Re” value in data set [4] (Mouse liver microsome) amounted to 0. For the same compound, the “Half-life t1/2 (min)” value in data set [4] (Mouse liver microsome 0.5 mg/mL, NADPH and UDPGA, 37° C.) is on record as “∞”.

Regarding `COc1cc2ncc3ncn([C@H](C)c4ccc(S(N)(=O)=O)cc4)c3c2cc1OC` [Compound 11a, (R)-4-(1-(7,8-dimethoxy-1H-imidazo[4,5-c]quinolin-1-yl)ethyl)benzenesulfonamide], the half-inhibitory concentration (IC50) turned out to be 2.5 nM in data set [1]; 0.88 nM in data set [2]; 2100 nM in data set [3]; 600 nM in data set [5]; 1200 nM in data set [6]. The inhibition at 20 µM in data set [3] (setting [9]) is 84%; in data set [5] it was 79%; in data set [6], 87%. Also, the “Hepatic extraction ratio Re” value in data set [4] (Mouse liver microsome) was determined as 0.85. Further, the half-life in data set [4] (liver microsomes, Mouse liver microsome 0.5 mg/mL, NADPH and UDPGA, 37° C., read-out: Half-life t1/2) was 11 min. Also, the microsomal CLint in data set [4] (liver microsomes, Mouse liver microsome, read-out: Intrinsic clearance Cl′int, (μL/min/mg protein)) came out at 131 µL/min/mg.

As to `COc1ccc2c(ncc3ncn(Cc4ccc(S(N)(=O)=O)cc4)c32)n1` [Compound 39, 4-((7-methoxy-1H-imidazo[4,5-c][1,8]naphthyridin-1-yl)methyl)benzenesulfonamide], the half-maximal inhibitory concentration (IC50) amounted to 0.42 nM in data set [1], 0.25 nM in data set [2], 730 nM in data set [3] and 400 nM in data set [5]. The compound further had an area under the curve (AUC) in data set [7] of 115 ng·h/mL. The clearance in data set [7] was 115 mL/min/kg. The same compound had a half-life in data set [7] of 19.8 min. For the same compound, the Vd in data set [7] was 3.1 L/kg. Moreover, the inhibition at 20 µM is 94% in data set [3] (setting [9]) and 82% in data set [5].

In turn, `COc1ccc2c(ncc3ncn(Cc4ccc(S(N)(=O)=O)cn4)c32)n1` [Compound 40, 6-((7-methoxy-1H-imidazo[4,5-c][1,8]naphthyridin-1-yl)methyl)pyridine-3-sulfonamide] registered an IC50 in data set [1] of 0.23 nM. For the same compound, in data set [7], the AUC was 241 ng·h/mL, the clearance was determined as 70 mL/min/kg, the half-life was 162 min and the Vd came out at 7.3 L/kg. Further, the concentration for half-maximal inhibition (IC50) in data set [2] turned out to be 0.15 nM. In addition, in data set [3], the half-inhibitory concentration (IC50) came to 130 nM. In data set [3] (setting [8]), the inhibition at 20 µM was 96%. For the same compound, in data set [5], the midpoint of inhibition, the IC50, lay at 65 nM and the inhibition at 20 µM was 85%.

As to `COc1ccc2c(ncc3ncn(Cc4ccc(S(N)(=O)=O)nc4)c32)n1` [Compound 41, 5-((7-methoxy-1H-imidazo[4,5-c][1,8]naphthyridin-1-yl)methyl)pyridine-2-sulfonamide], the half-maximal inhibitory concentration (IC50) in data set [1] is 0.9 nM; in data set [2], 0.21 nM; in data set [3], 660 nM; in data set [5] it was 310 nM. This compound registered an AUC in data set [7] of 227 ng·h/mL. In data set [7], the clearance worked out at 74 mL/min/kg. This compound had a half-life in data set [7] of 72 min. For the same compound, in data set [7], the Vd amounted to 4 L/kg. Moreover, the inhibition at 20 µM worked out at 96% in data set [3] (setting [9]) and 81% in data set [5].

Consider `COc1ccc2c(ncc3ncn(Cc4ccc(NS(N)(=O)=O)cc4)c32)n1` [Compound 46, 4-((7-methoxy-1H-imidazo[4,5-c][1,8]naphthyridin-1-yl)methyl)phenyl sulfamide], for which the half-maximal inhibitory concentration (IC50) in data set [2] turned out to be 5.2 nM; in data set [3] it was 2400 nM; in data set [5] it was 1600 nM. Besides, the inhibition at 20 µM in data set [3] (setting [8]) was 85%; in data set [5], 75%.

Consider `COc1ccc2c(ncc3nc(C(F)(F)F)n(Cc4ccc(S(N)(=O)=O)cc4)c32)n1` [Compound 47, 4-((7-methoxy-2-(trifluoromethyl)-1H-imidazo[4,5-c][1,8]naphthyridin-1-yl)methyl)benzenesulfonamide], for which the IC50 in data set [2] was 1 nM; in data set [3] it was 5000 nM; in data set [5] it was 3400 nM. Moreover, the inhibition at 20 µM in data set [3] (setting [9]) was 77%; in data set [5] it was 72%.

For `COc1cnc2c(c1)ncc1ncn(Cc3ccc(S(N)(=O)=O)cc3)c12` [Compound 49, 4-((7-methoxy-1H-imidazo[4,5-c][1,5]naphthyridin-1-yl)methyl)benzenesulfonamide], the 50% inhibitory concentration (IC50) came out at 4.8 nM in data set [1], 1.9 nM in data set [2], 10000 nM in data set [3] and 6000 nM in data set [5]. The inhibition at 20 µM in data set [3] (setting [9]) and in data set [5] was 67% in each case.

By IC50 is commonly meant the concentration needed to halve the response being measured. Low readings indicate higher potency, high ones lower potency. The term inhibition denotes the drop in the measured response relative to a control, in per cent. A word on the AUC: it is concentration integrated over time. Low readings indicate less exposure, high ones more exposure. Usually clearance stands for the volume of plasma or blood freed of the substance per unit of time.
